Where a name gives a salt, the structure may show the parent alone.
target: T1, LHRH rat pituitary receptor (Rattus norvegicus, UniProt P30969); test: LHRH rat pituitary receptor binding; details: Table 1: compounds of formula (V), by n and R1
T1 construct: from tissue; host or cells: rat pituitary
T1 sequence (P30969 1-327): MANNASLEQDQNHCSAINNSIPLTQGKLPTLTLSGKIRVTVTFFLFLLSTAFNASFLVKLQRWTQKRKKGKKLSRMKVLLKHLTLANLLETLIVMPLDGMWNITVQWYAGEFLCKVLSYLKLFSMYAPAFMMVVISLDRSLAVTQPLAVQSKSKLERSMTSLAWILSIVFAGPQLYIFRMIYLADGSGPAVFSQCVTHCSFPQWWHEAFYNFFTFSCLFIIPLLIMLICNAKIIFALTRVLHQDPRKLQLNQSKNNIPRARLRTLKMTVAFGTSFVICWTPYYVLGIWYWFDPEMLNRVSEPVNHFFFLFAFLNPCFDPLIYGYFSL
Procedure, shortened: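 Rat pituitary receptor binding of antagonists, run per a literature procedure. Reported as pKi, the negative log of the equilibrium dissociation constant.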

How did the Ki turn out when `COc1cc2c(cc1OC)C(Cc1ccc(Cl)cc1)N(CCCC(CCCNC(=O)CCc1ccc(F)cc1)(c1ccccc1)c1ccccc1)CC2` (centres unmarked) [Example 18, 7-[N-3-(4-Fluorophenyl)propionyl]amino-1-[N-(1,2,3,4-tetrahydro-1-(4-chlorobenzyl)-6,7-dimethoxyisoguinolinyl)1-4.4-diphenylheptane hydrochloride] was run?
Its Ki is 38.9 nM.

How did the Ki turn out when `COc1cc2c(cc1OC)C(c1ccccc1)N(CCCC(CCCNC(=O)CCc1ccc(F)cc1)(c1ccccc1)c1ccccc1)CC2` (centres unmarked) [Example 7, 7-[N-3-(4-Fluorophenyl)propionyl]amino-1-[N-(1,2,3,4-tetrahydro-1-phenyl-6,7-dimethoxyisoquinolinyl)]1-4.4-diphenylheptane hydrochloride] was run?
Its Ki is 45.7 nM.

`COc1cc2c(cc1OC)C(C1CCCCC1)N(CCCC(CCCNC(=O)CCc1ccc(F)cc1)(c1ccccc1)c1ccccc1)CC2` (centres unmarked) [Example 10, 7-[N-3-(4-Fluorophenyl)propionyl]amino-1-[N-(1,2,3,4-tetrahydro-1-cyclohexyl-6,7-dimethoxyisoguinolinyl)1-4.4-diphenylheptane hydrochloride] was tested. Which Ki did it give?
The Ki was 2.88 nM.

With `COc1cc2c(cc1OC)C(C)N(CCC(CCCNC(=O)CCc1ccc(F)cc1)(c1ccccc1)c1ccccc1)CC2` (centres unmarked) [Example 44] as the compound, how does the Ki read?
The Ki was 70.8 nM.

With `COc1cc2c(cc1OC)C(C1CCCC1)N(CCCC(CCCNC(=O)CCc1ccc(F)cc1)(c1ccccc1)c1ccccc1)CC2` (centres unmarked) [Example 8, 7-[N-3-(4-Fluorophenyl)propionyl]amino-1-[N-(1,2,3,4-tetrahydro-1-cyclopentyl-6.7-dimethoxyisoguinolinyl)]-4,4-diphenylheptane hydrochloride] as the compound, how does the Ki read?
The Ki was 0.389 nM.

From patent US5981521A, “Tetrahydroisoquinoline derivatives as LHRH antagonists” (Abbott Laboratories, priority 1998, dated 1999)
